According to patent publication US5876981A, “Transglycosylation reactions employing β-galactosidase” (The Scripps Research Institute, priority 1996, dated 1999):

How the values were obtained:
Format in all cases: biochemical, Bacillus circulans
[1] = system: β-galactosidase; test: half-life in β-galactosidase-catalyzed hydrolysis (pseudo first order kinetics); conditions: 5 mM compound, enzyme 140 U/mmol, in D2O, NMR integration of released 3 vs remaining 4
Protocol: (§1) The half-lives of compounds 2 and 4 determined from the pseudo first order kinetics of the β-galactosidase-catalyzed hydrolysis were measured as below. 2: A 0.5-mL solution of potassium phosphate buffer (50 mM, pH 7.0) containing 2 (5 mM) and β-galactosidase (140 unit per 1 mmol of 2) was measured continuously in a plastic cell with a 1 cm light path at 420 nm against a control in the absence of the enzyme. 4: A 5-mM solution of 4 and the enzyme (140 U/mmol) in D2 O was poured into an NMR tube, the ratio between the released 3 and remaining 4 was determined periodically by the integration of 6-H of 4 (3.98 ppm) and 6-H of 3 (3.88 ppm).

[2] = as above; conditions: potassium phosphate buffer with β-galactosidase; 5 mM compound, enzyme 140 unit per mmol, 50 mM potassium phosphate buffer pH 7.0, absorbance at 420 nm; read-out: T1/2 toward the β-galactosidase-catalyzed hydrolysis (converted)
Protocol: as §1

[3] = system: β-galactosidase; test: initial reaction rate of β-galactosidase-catalyzed reaction (released p-nitrophenol, 420 nm); conditions: 0.05M donor, 0.05M potassium phosphate buffer pH 7.0, room temperature
Protocol: FIG. 2 illustrates the comparison of β-galactosidase-catalyzed reaction using galactopyranose (GalβOpNP) and galactohexodialdose (6-oxo-GalβOpNP). (a): The reaction mixture containing 0.05M of donor, and various concentrations of N-acetyl-D-glucosamine in 0.05M potassium phosphate buffer (pH 7.0) was gently stirred at room temperature in the presence of the enzyme (140 U/mmol of donor) for 24 hours; (b) The mixture (containing the same components as described in (a)) was incubated with shaking for 5-10 min at room temperature. Absorbance was measured at 420 nm; (C) Methyl-β-N-acetyl-D-lactosamine (5) was obtained by reduction with NaBH4 followed by product isolation.
In order to determine which step is kinetically controlled, the effect of acceptors on initial reaction rate, (V)0, was investigated (FIG. 2). […] Addition of water soluble organic solvent would reduce water activity to some extent, but it often causes substrate and/or product inhibition and makes the enzyme unstable (Kieboom et al., Recl. Trav. Chim. Pays-Bas 1988, 107, 347-348). To shift the reaction toward transglycosylation in water, it is therefore necessary to kinetically control the partitioning step to favor the transglycosylation.

Compound	T1/2 toward the β-galactosidase-catalyzed hydrolysis [1] [min]	half-life at 5000 µM [2] [min]	substrate quality for β-galactosidase [3]
6'-oxo-LacNAc [Compound 4]	1860		
O=[N+]([O-])c1ccc(O[C@@H]2O[C@H](C(O)O)[C@H](O)[C@H](O)[C@H]2O)cc1 [Compound 2, p-nitrophenyl glycoside of D-galactohexodialdose]		24	relatively weak substrate
